Laboratory results reported in patent US20260217697A1, “COMPOUNDS COMPRISING HETEROARYL RINGS AND COMPOSITIONS AND METHODS THEREOF” (lonGen Therapeutics Co., Ltd., priority 2022, published 2026).

Biological target: T1, hTRPV3 (Homo sapiens, UniProt Q8NET8)
T1 construct: The commercially available plasmid with the full-length cDNA of hTRPV3 (791 aa) (NM_001258205.2); host or cells: HEK293T
T1 sequence (Q8NET8 1-791 isoform Q8NET8-2): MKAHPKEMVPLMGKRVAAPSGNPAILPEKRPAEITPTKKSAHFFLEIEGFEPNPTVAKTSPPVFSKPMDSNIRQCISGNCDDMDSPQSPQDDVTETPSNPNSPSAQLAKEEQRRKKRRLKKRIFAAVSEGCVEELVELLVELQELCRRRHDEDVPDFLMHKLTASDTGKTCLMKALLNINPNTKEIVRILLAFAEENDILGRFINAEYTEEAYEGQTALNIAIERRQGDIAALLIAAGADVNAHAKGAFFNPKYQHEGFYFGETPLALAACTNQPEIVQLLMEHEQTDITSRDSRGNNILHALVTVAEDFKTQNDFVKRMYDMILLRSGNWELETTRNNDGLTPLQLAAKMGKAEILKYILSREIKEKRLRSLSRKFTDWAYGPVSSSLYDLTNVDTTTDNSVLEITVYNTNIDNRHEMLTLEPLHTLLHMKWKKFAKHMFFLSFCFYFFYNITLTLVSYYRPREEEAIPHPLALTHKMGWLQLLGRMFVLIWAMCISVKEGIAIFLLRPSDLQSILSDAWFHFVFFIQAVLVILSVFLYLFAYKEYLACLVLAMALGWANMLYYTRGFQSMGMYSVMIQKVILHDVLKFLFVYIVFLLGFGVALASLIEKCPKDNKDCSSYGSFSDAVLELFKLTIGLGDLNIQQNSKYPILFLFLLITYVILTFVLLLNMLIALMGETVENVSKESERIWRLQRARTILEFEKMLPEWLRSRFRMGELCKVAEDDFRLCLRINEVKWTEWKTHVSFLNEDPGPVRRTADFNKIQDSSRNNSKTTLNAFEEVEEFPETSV
Experiment: Whole-cell patch-clamp recording of hTRPV3 current in transfected HEK293T cells (2-APB induced)
Format: cell-based
Conditions: current induced by 300 μM 2-APB, compounds tested up to 10 μM, room temperature
How it was run: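 IC50 comes from Hill fits, 0–100% bounds, of percent block of 2-APB-induced current, with compounds perfused at up to 10 μM. Currents elicited at +80/−80 mV (400-ms steps, 2-s interval, 0 mV hold), room temperature, symmetric NaCl/EDTA/HEPES pH 7.4 solutions. Cells: hTRPV3-transfected HEK293T, used 18 h after transfection.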

| Compound | IC50 [nM] |
| --- | --- |
| COc1ncnc(OCCN(C)C)c1C(=O)Nc1nc2c(s1)C1(COC1)Oc1cc(C(F)(F)F)ccc1-2 [compound 151, 4-(2-(dimethylamino)ethoxy)-6-methoxy-N-(7-(trifluoromethyl)spiro[chromeno[4,3-d]thiazole-4,3′-oxetan]-2-yl)pyrimidine-5-carboxamide] | 1000 to 10000 |
| COc1ncnc(OC)c1C(=O)Nc1nc2c(s1)C1(CCN(C(C)C)CC1)Oc1cc(C(F)(F)F)ccc1-2 [compound 152, N-(1′-isopropyl-7-(trifluoromethyl)spiro[chromeno[4,3-d]thiazole-4,4′-piperidin]-2-yl)-4,6-dimethoxypyrimidine-5-carboxamide] | 100 to 1000 |
| COc1ncnc(OC)c1C(=O)Nc1nc2c(s1)C1(CCN(C3CC3)CC1)Oc1cc(C(F)(F)F)ccc1-2 [compound 154] | 100 to 1000 |
| COc1ncnc(OC)c1C(=O)Nc1nc2c(s1)C1(CCN(CC(C)C)CC1)Oc1cc(C(F)(F)F)ccc1-2 [compound 155, N-(1′-isobutyl-7-(trifluoromethyl)spiro[chromeno[4,3-d]thiazole-4,4′-piperidin]-2-yl)-4,6-dimethoxypyrimidine-5-carboxamide] | < 100 |
| COc1ncnc(OC)c1C(=O)Nc1nc2c(s1)C1(CN(C(=O)OC(C)(C)C)C1)Oc1cnccc1-2 [compound 156, tert-butyl 2′-(4,6-dimethoxypyrimidine-5-carboxamido)spiro[azetidine-3,4′-thiazolo[4′,5′: 4,5]pyrano[2,3-c]pyridine]-1-carboxylate] | 1000 to 10000 |
| CCC1(CC)Oc2cc(C(F)(F)F)ccc2-c2nc(NC(=O)c3c(OC)nc(OC)nc3OC)sc21 [compound 158, N-(4,4-diethyl-7-(trifluoromethyl)-4H-chromeno[4,3-d]thiazol-2-yl)-2,4,6-trimethoxypyrimidine-5-carboxamide] | ≥ 10000 |
| CCC1(CC)Oc2cc(C(F)(F)F)ccc2-c2nc(NC(=O)c3c(OC)nn(C)c3Br)sc21 [compound 161, 5-bromo-N-(4,4-diethyl-7-(trifluoromethyl)-4H-chromeno[4,3-d]thiazol-2-yl)-3-methoxy-1-methyl-1H-pyrazole-4-carboxamide] | ≥ 10000 |
| CCC1(CC)Oc2cc(C(F)(F)F)ccc2-c2nc(NC(=O)c3c(OC)nc(C)nc3OC)sc21 [compound 162, N-(4,4-diethyl-7-(trifluoromethyl)-4H-chromeno[4,3-d]thiazol-2-yl)-4,6-dimethoxy-2-methylpyrimidine-5-carboxamide] | 1000 to 10000 |
| COc1ncnc(OC)c1C(=O)Nc1nc2c(s1)C1(CN(CCN(C)C)C1)Oc1cc(C(F)(F)F)ccc1-2 [compound 164, N-(1-(2-(dimethylamino)ethyl)-7′-(trifluoromethyl)spiro[azetidine-3,4′-chromeno[4,3-d]thiazol]-2′-yl)-4,6-dimethoxypyrimidine-5-carboxamide] | 1000 to 10000 |
| COc1ncnc(OC)c1C(=O)Nc1nc2c(s1)C1(CN(CC(=O)O)C1)Oc1cc(C(F)(F)F)ccc1-2 [compound 165] | ≥ 10000 |
| COc1ncnc(OC)c1C(=O)Nc1nc2c([se]1)C1(CN(C(=O)OC(C)(C)C)C1)Oc1cc(C(F)(F)F)ccc1-2 [compound 168, tert-butyl 2′-(4,6-dimethoxypyrimidine-5-carboxamido)-7′-(trifluoromethyl)spiro[azetidine-3,4′-chromeno[4,3-d][1,3]selenazole]-1-carboxylate] | 100 to 1000 |

More lines, now with the values ahead:

| IC50 [nM] | Compound |
| --- | --- |
| < 100 | COc1ncnc(OC)c1C(=O)Nc1nc2c(s1)C1(CN(C3(OC)CC3)C1)Oc1cc(C(F)(F)F)ccc1-2 [compound 153, 4,6-dimethoxy-N-(1-(1-methoxycyclopropyl)-7′-(trifluoromethyl)spiro[azetidine-3,4′-chromeno[4,3-d]thiazol]-2′-yl)pyrimidine-5-carboxamide] |
| < 100 | COCCN1CC2(C1)Oc1cc(C(F)(F)F)ccc1-c1nc(NC(=O)c3c(OC)ncnc3OC)sc12 [compound 157, 4,6-dimethoxy-N-(1-(2-methoxyethyl)-7′-(trifluoromethyl)spiro[azetidine-3,4′-chromeno[4,3-d]thiazol]-2′-yl)pyrimidine-5-carboxamide] |
| < 100 | COc1ncnc(OC)c1C(=O)Nc1nc2c(s1)C1(CN(C3CCC3)C1)Oc1cc(C(F)(F)F)ccc1-2 [compound 159, N-(1-cyclobutyl-7′-(trifluoromethyl)spiro[azetidine-3,4′-chromeno[4,3-d]thiazol]-2′-yl)-4,6-dimethoxypyrimidine-5-carboxamide] |
| 100 to 1000 | COc1ncnc(OC)c1C(=O)Nc1nc2c(s1)C1(CN(C3COC3)C1)Oc1cc(C(F)(F)F)ccc1-2 [compound 160, 4,6-dimethoxy-N-(1-(oxetan-3-yl)-7′-(trifluoromethyl)spiro[azetidine-3,4′-chromeno[4,3-d]thiazol]-2′-yl)pyrimidine-5-carboxamide] |
| < 100 | COC(=O)CN1CC2(C1)Oc1cc(C(F)(F)F)ccc1-c1nc(NC(=O)c3c(OC)ncnc3OC)sc12 [compound 163] |
| 100 to 1000 | COc1ncnc(OC)c1C(=O)Nc1nc2c(s1)C1(CN(CCO)C1)Oc1cc(C(F)(F)F)ccc1-2 [compound 166, N-(1-(2-hydroxyethyl)-7′-(trifluoromethyl)spiro[azetidine-3,4′-chromeno[4,3-d]thiazol]-2′-yl)-4,6-dimethoxypyrimidine-5-carboxamide] |
| 100 to 1000 | COc1ncnc(OC)c1C(=O)Nc1nc2c(s1)C1(CN(C(C)(C)CC(C)=O)C1)Oc1cc(C(F)(F)F)ccc1-2 [compound 167, 4,6-dimethoxy-N-(1-(2-methyl-4-oxopentan-2-yl)-7′-(trifluoromethyl)spiro[azetidine-3,4′-chromeno[4,3-d]thiazol]-2′-yl)pyrimidine-5-carboxamide] |
